Test results taken from patent US7179840B2, “Furancarboxamides” (Bayer CropScience AG, priority 2002, dated 2007).

System: not listed separately
Test: logP determination by HPLC (reversed-phase C18), acidic range
Format: physicochemical
Conditions: pH 2.3, C18, 43° C., 0.1% aqueous phosphoric acid/acetonitrile
Procedure: The logP values given in the Preparation Examples were determined in accordance with EEC Directive 79/831 Annex V.A8 by HPLC (High Performance Liquid Chromatography) using a reversed-phase column (C 18). Temperature: 43° C.
Mobile phases for the determination in the acidic range: 0.1% aqueous phosphoric acid, acetonitrile; linear gradient from 10% acetonitrile to 90% acetonitrile.
Calibration was carried out using unbranched alkan-2-ones (having 3 to 16 carbon atoms) with known logP values (determination of the logP values by the retention times using linear interpolation between two successive alkanones).

Compared with `Cc1occc1C(=O)Nc1ccccc1-c1ccc(OC(F)(F)F)cc1` [Example 5], `Cc1occc1C(=O)Nc1ccccc1-c1ccc(C(F)(F)F)cc1` [Example 3] is lower in chromatographic logP: 3.91 for the first, 3.53 for the second.

`Cc1occc1C(=O)Nc1ccccc1-c1cc(Cl)cc(Cl)c1` [Example 16] and `Cc1occc1C(=O)Nc1ccccc1-c1ccc(Cl)c(Cl)c1` [Example 15] are within 0.2 log units of each other in chromatographic logP: 3.9 for the first, 3.73 for the second.

`Cc1occc1C(=O)Nc1ccccc1-c1cccc(Cl)c1` [Example 4] and `Cc1occc1C(=O)Nc1ccccc1-c1ccc(F)c(Cl)c1` [Example 10] are within 0.2 log units of each other in chromatographic logP: 3.58 for the first, 3.46 for the second.

Compared with `Cc1occc1C(=O)Nc1ccccc1-c1ccc(Cl)c(F)c1` [Example 9], `Cc1occc1C(=O)Nc1ccccc1-c1ccc(F)c(F)c1` [Example 8] is lower in chromatographic logP: 3.43 for the first, 3.22 for the second.

`Cc1occc1C(=O)Nc1ccccc1-c1ccc(Br)cc1` [Example 2] and `CSc1ccc(-c2ccccc2NC(=O)c2ccoc2C)cc1` [Example 6] are within 0.2 log units of each other in chromatographic logP: 3.71 for the first, 3.63 for the second.

Same assay, conditions: reversed-phase C18 HPLC column, pH 2.3, C18, 43° C., 0.1% aqueous phosphoric acid/acetonitrile

`Cc1occc1C(=O)Nc1ccccc1-c1ccc(Cl)cc1F` [Example 1, N-(4′-chloro-2′-fluoro-1,1′-biphenyl-2-yl)-2-methyl-3-furamide] showed a chromatographic logP of 3.38.

System: Podosphaera leucotricha
Test: Podosphaera Test (Apple)/Protective
Format: in vivo
Conditions: 240 h, protective, application rate 100 g/ha, evaluation 10 days after inoculation, read-out: Efficacy in %
Procedure: Podosphaera Test (Apple)/Protective
(§1) To produce a suitable preparation of active compound, 1 part by weight of active compound is mixed with the stated amounts of solvent and emulsifier, and the concentrate is diluted with water to the desired concentration.
To test for protective activity, young plants are sprayed with the preparation of active compound at the stated application rate. After the spray coating has dried on, the plants are inoculated with an aqueous spore suspension of the apple mildew pathogen Podosphaera leucotricha. The plants are then placed in a greenhouse at about 23° C. and a relative atmospheric humidity of about 70%.
(§2) Evaluation is carried out 10 days after the inoculation. 0% means an efficacy which corresponds to that of the control, whereas efficacy of 100% means that no infection is observed.

`Cc1occc1C(=O)Nc1ccccc1-c1ccc(OC(F)(F)F)cc1` [Example 5] and `Cc1occc1C(=O)Nc1ccccc1-c1ccc(C(F)(F)F)cc1` [Example 3] are the same in pest or weed control at 100 g/ha: 93% for the first, 93% for the second.

`Cc1occc1C(=O)Nc1ccccc1-c1cccc(Cl)c1` [Example 4] and `Cc1occc1C(=O)Nc1ccccc1-c1ccc(F)c(Cl)c1` [Example 10] are the same in pest or weed control at 100 g/ha: 100% for the first, 100% for the second.

Compared with `Cc1occc1C(=O)Nc1ccccc1-c1ccc(Cl)c(F)c1` [Example 9], `Cc1occc1C(=O)Nc1ccccc1-c1ccc(F)c(F)c1` [Example 8] is lower in pest or weed control at 100 g/ha: 97% for the first, 85% for the second.

Going from `Cc1occc1C(=O)Nc1ccccc1-c1ccc(Cl)c(Cl)c1` [Example 15] to `CSc1ccc(-c2ccccc2NC(=O)c2ccoc2C)cc1` [Example 6], the pest or weed control at 100 g/ha falls from 100% to 92%.

System: Venturia inaequalis
Test: Venturia Test (Apple)/Protective
Format: in vivo
Conditions: 240 h, protective, application rate 100 g/ha, evaluation 10 days after inoculation, read-out: Efficacy in %
Procedure: Venturia Test (Apple)/Protective
as §1
To test for protective activity, young plants are sprayed with the preparation of active compound at the stated application rate. After the spray coating has dried on, the plants are inoculated with an aqueous conidia suspension of the apple scab pathogen Venturia inaequalis and then remained in an incubation cabin at about 20° C. and 100% relative atmospheric humidity for 1 day.
The plants are then placed in a greenhouse at about 21° C. and a relative atmospheric humidity of about 90%.
as §2

`Cc1occc1C(=O)Nc1ccccc1-c1ccc(OC(F)(F)F)cc1` [Example 5] and `Cc1occc1C(=O)Nc1ccccc1-c1ccc(C(F)(F)F)cc1` [Example 3] are the same in pest or weed control at 100 g/ha: 100% for the first, 100% for the second.

`Cc1occc1C(=O)Nc1ccccc1-c1cccc(Cl)c1` [Example 4] and `Cc1occc1C(=O)Nc1ccccc1-c1ccc(F)c(Cl)c1` [Example 10] are the same in pest or weed control at 100 g/ha: 100% for the first, 100% for the second.

`Cc1occc1C(=O)Nc1ccccc1-c1ccc(Cl)c(F)c1` [Example 9] and `Cc1occc1C(=O)Nc1ccccc1-c1ccc(F)c(F)c1` [Example 8] are the same in pest or weed control at 100 g/ha: 100% for the first, 100% for the second.

`Cc1occc1C(=O)Nc1ccccc1-c1ccc(Br)cc1` [Example 2] and `CSc1ccc(-c2ccccc2NC(=O)c2ccoc2C)cc1` [Example 6] are the same in pest or weed control at 100 g/ha: 100% for the first, 100% for the second.

With `Cc1occc1C(=O)Nc1ccccc1-c1ccc(Cl)c(Cl)c1` [Example 15] the pest or weed control at 100 g/ha was 100%.

System: Alternaria solani
Test: Alternaria Test (Tomato)/Protective
Format: in vivo
Conditions: 48 h, protective, application rate 100 g/ha, evaluation 2 days after inoculation, read-out: Efficacy in %
Procedure: Alternaria Test (Tomato)/Protective
as §1
To test for protective activity, young tomato plants are sprayed with the preparation of active compound at the stated application rate. 1 day after the treatment, the plants are inoculated with an aqueous spore suspension of Alternaria solani. The plants are then placed in an incubation cabin at about 20° C. and 100% relative atmospheric humidity.
Evaluation is carried out 2 days after the inoculation. 0% means an efficacy which corresponds to that of the control, whereas efficacy of 100% means that no infection is observed.

First: Cc1occc1C(=O)Nc1ccccc1-c1ccc(OC(F)(F)F)cc1 [Example 5]
Second: Cc1occc1C(=O)Nc1ccccc1-c1ccc(C(F)(F)F)cc1 [Example 3]
The pest or weed control at 100 g/ha of the first is lower: 92% for the first, 100% for the second.

Compared with `Cc1occc1C(=O)Nc1ccccc1-c1cccc(Cl)c1` [Example 4], `Cc1occc1C(=O)Nc1ccccc1-c1ccc(F)c(Cl)c1` [Example 10] is lower in pest or weed control at 100 g/ha: 98% for the first, 95% for the second.

Compared with `Cc1occc1C(=O)Nc1ccccc1-c1ccc(Cl)c(F)c1` [Example 9], `Cc1occc1C(=O)Nc1ccccc1-c1ccc(F)c(F)c1` [Example 8] is lower in pest or weed control at 100 g/ha: 100% for the first, 82% for the second.

Compared with `Cc1occc1C(=O)Nc1ccccc1-c1ccc(Br)cc1` [Example 2], `CSc1ccc(-c2ccccc2NC(=O)c2ccoc2C)cc1` [Example 6] is lower in pest or weed control at 100 g/ha: 100% for the first, 95% for the second.

Compound `Cc1occc1C(=O)Nc1ccccc1-c1ccc(Cl)c(Cl)c1` [Example 15] has a pest or weed control at 100 g/ha of 96%.

System: Sphaerotheca fuliginea
Test: Sphaerotheca Test (Cucumber)/Protective
Format: in vivo
Conditions: protective, application rate 750 g/ha, evaluation 7 days after inoculation
Procedure: Sphaerotheca Test (Cucumber)/Protective
as §1
To test for protective activity, young cucumber plants are sprayed with the preparation of active compound at the stated application rate. 1 day after the treatment, the plants are inoculated with a spore suspension of Sphaerotheca fuliginea. The plants are then placed in a greenhouse at 70% relative atmospheric humidity and temperature of 23° C.
(§3) Evaluation is carried out 7 days after the inoculation. 0% means an efficacy which corresponds to that of the control, whereas efficacy of 100% means that no infection is observed.

Compared with `Cc1occc1C(=O)Nc1ccccc1-c1cc(Cl)cc(Cl)c1` [Example 16], `Cc1occc1C(=O)Nc1ccccc1-c1cccc(Cl)c1` [Example 4] is higher in Efficacy in %: 90% for the first, 95% for the second.

Compared with `Cc1occc1C(=O)Nc1ccccc1-c1ccc(C(F)(F)F)cc1` [Example 3], `Cc1occc1C(=O)Nc1ccccc1-c1ccc(Br)cc1` [Example 2] is lower in Efficacy in %: 100% for the first, 90% for the second.

System: Pyrenophora teres
Test: Pyrenophora teres Test (Barley)/Protective
Format: in vivo
Conditions: protective, application rate 500 g/ha, evaluation 7 days after inoculation
Procedure: Pyrenophora teres Test (Barley)/Protective
as §1
To test for protective activity, young plants are sprayed with the preparation of active compound at the stated application rate. After the spray coating has dried on, the plants are sprayed with a conidia suspension of Pyrenophora teres. The plants remain in an incubation cabin at 20° C. and 100% relative atmospheric humidity for 48 h. The plants are then placed in a greenhouse at a temperature of about 20° C. and a relative atmospheric humidity of about 80%.
as §3

In the case of `Cc1occc1C(=O)Nc1ccccc1-c1ccc(Cl)c(Cl)c1` [Example 15], the Efficacy in % was 90%.
